≈ marks a conversion by molar mass, not a printed value. Entries after “also recorded” stand apart in the source; their conditions may differ. Marks after values point to notes of the source that are not given here.
Key:
[1] = system: patients with Alagille syndrome (ALGS); assay: ASSERT: hepatic parameters, biochemical markers and markers of bile acid synthesis; type: in vivo, human
Description: […] Additional secondary efficacy endpoints were as follows: • Change from baseline in pruritus to Month 6 (Weeks 21 to 24) as measured by the Albireo PRO instrument. • Percentage of patients achieving a clinically meaningful decrease in pruritus (pruritis responders) as measured by the ObsRO/PRO instruments. • Change from baseline through Week 24 in patient reported and observer reported itching and scratching severity scores, respectively, for the morning assessment and for the evening assessment; sleep parameters as measured with the Albireo ObsRO/PRO instruments (e.g., tiredness and number of awakenings); and PedsQL subdomain scores. • Assessment of Global Symptom Relief to from baseline to Weeks 4, 12, and 24 as measured by patient, caregiver, and clinician Global Impression of Symptoms GIS (PGIS, CaGIS, CGIS) items. • Change from baseline to Week 24 in xanthomatosis as assessed by the Clinician Xanthoma Scale; serum bile acid levels; serum ALT concentration; and serum AST concentration; gamma-glutamyl transferase concentration; total bilirubin concentration. • Change from baseline in biochemical markers and measures of bile acid synthesis (autotaxin, p-C4, only in patients >10 kg); and total cholesterol concentration.
Biochemical Markers and PK Samples. Blood samples for analysis of clinical chemistry were drawn during Screening Visits 1 and 2, as well as at randomization (Study Day 1), Week 4 to 24/EOT, and Safety Follow-up visits. As outlined in Table 1, total bilirubin, AST, ALT, and gamma glutamyl transferase assessments were included as part of the routine laboratory parameters. Blood samples for autotaxin and p-C4 were drawn at randomization (Study Day 1), Week 12, and Week 24/EOT, only for children with body weight >10 kg. Blood for odevixibat PK assessment was drawn at Week 4, Week 20, and EOT (only for children with body weight >10 kg). Samples were processed and transported to a laboratory per instructions in the laboratory manual.

[2] = system: patients with Alagille syndrome (ALGS); assay: ASSERT: fat-soluble vitamin levels, INR and related TEAEs; type: in vivo, human
Method: Vitamins A, D, E, and international normalized ratio (INR; surrogate for vitamin K) were measured throughout the study. Vitamins A, D, and E were measured at screening and randomization, week 12, and week 24. International normalized ratio (INR; surrogate for vitamin K) was measured at all visits. The following measures were determined: (i) percentage of patients with FSV insufficiency at baseline and week 24, and (ii) shifts from baseline to high or low post-baseline FSV values relative to normal ranges. Treatment-emergent adverse events (TEAEs) of FSV deficiency, TEAEs resulting from new or worsening FSV deficiency refractory to clinically recommended vitamin supplementation, and TEAEs represented any possible sequelae of FSV deficiency were evaluated.

[3] = system: patients with Alagille syndrome (ALGS); assay: ASSERT: Clinician Xanthoma Scale; type: in vivo, human
Method: Clinical Assessment of Xanthoma. Changes in xanthoma as assessed by the Clinician Xanthoma Scale were measured at randomization (Study Day 1), Week 12, and Week 24/EOT visits. The clinician's assessment of the participant's xanthomatosis was focused on the number of lesions present and the degree to which the participant's lesions interfered or limited activities.

Solubility in water = type: physicochemical; settings: pH 7, 37° C.
Description: It is desirable that the use of organic solvents in the preparation of the formulation is avoided. In some embodiments, water is used as the solvent for the preparation of the formulation. […] Because of this low solubility in water, aqueous suspensions of odevixibat can contain larger agglomerates of odevixibat, which may lead to an uneven distribution of the active pharmaceutical ingredient on the cores, i.e., the cores may contain different amounts of odevixibat, which in turn impacts dose uniformity. Accordingly, in some embodiments, the aqueous suspension of odevixibat is homogeneous. In some embodiments, a homogeneous aqueous suspension of odevixibat is sprayed onto the cores.

[4] = system: patients with Alagille syndrome (ALGS); assay: ASSERT pruritus responders: ObsRO sleep parameters
Description: Treatment with concomitant medications for pruritus was permitted provided the patient was on a stable dosage for ≥4 weeks prior to enrollment that was maintained throughout the study.
Pruritus responders were defined as patients having a ≥1-point decrease in ObsRO scratching score from baseline to weeks 21-24).

[5] = baseline, before treatment, n=35
[6] = baseline, before treatment, patients >10 kg
[7] = week 24, 120 μg/kg/day, patients >10 kg

## CCCCC1(CCCC)CN(c2ccccc2)c2cc(SC)c(OCC(=O)N[C@@H](C(=O)N[C@@H](CC)C(=O)O)c3ccc(O)cc3)cc2S(=O)(=O)N1 [odevixibat, 1,1-dioxo-3,3-dibutyl-5-phenyl-7-methylthio-8-(N-{(R)-α-[N-((S)-1-carboxypropyl)carbamoyl]-4-hydroxybenzyl}carbamoylmethoxy)-2,3,4,5-tetrahydro-1,2,5-benzothiadiazepine]
[1]; 120 μg/kg/day, n=35
  GGT, LS mean (SE) change from baseline to week 24: 100 (44) U/L
  Serum ALT, LS mean (SE) change from baseline to week 24: 66 (14) U/L
  Serum AST, LS mean (SE) change from baseline to week 24: 54 (15) U/L
  Total bilirubin, LS mean (SE) change from baseline to week 24: 1 (3) μmol/L
  Total cholesterol, LS mean (SE) change from baseline to week 24: −1 (1) mmol/L
[1]; 120 μg/kg/day, patients >10 kg
  Autotaxin, Mean (SD) change from baseline to week 24: −414 (439) ng/mL
  C4, Mean (SD) change from baseline to week 24: 12 (12) ng/mL
[1]; [5]
  GGT, Mean (SD) at baseline: 366 (211) U/L
  Serum ALT, Mean (SD) at baseline: 186 (83) U/L
  Serum AST, Mean (SD) at baseline: 170 (81) U/L
  Total bilirubin, Mean (SD) at baseline: 52 (43) μmol/L
  Total cholesterol, Mean (SD) at baseline: 8 (2) mmol/L
[1]; [6]
  Autotaxin, Mean (SD) at baseline: 1846 (540) ng/mL
  C4, Mean (SD) at baseline: 6 (6) ng/mL
[1]; post-baseline, 24 weeks
  patients with post-treatment changes in Total Bilirubin (≥3×BL) concurrently with ALT (≥2×BL) (Hy's Law / drug induced liver injury cases): No patient
[1]; week 24, 120 μg/kg/day, n=35
  GGT, Mean (SD) at week 24: 460 (270) U/L
  Serum ALT, Mean (SD) at week 24: 245 (121) U/L
  Serum AST, Mean (SD) at week 24: 217 (131) U/L
  Total bilirubin, Mean (SD) at week 24: 53 (42) μmol/L
  Total cholesterol, Mean (SD) at week 24: 7 (2) mmol/L
[1]; [7]
  Autotaxin, Mean (SD) at week 24: 1452 (440) ng/mL
  C4, Mean (SD) at week 24: 19 (13) ng/mL
[2]; 4/29
  shifts to low levels of vitamin E in patients with normal or high baseline levels: 14%
[2]; 8/16
  shifts to low vitamin D levels in patients with normal or high baseline levels: 50%
[2]; 12/30
  shifts from low or normal INR at baseline to high INR (low vitamin K): 40%
[2]; 24 weeks
  TEAE related to FSV levels: decreased vitamin A: 1 n
  TEAE related to FSV levels: decreased vitamin E: 1 n
  TEAE related to FSV levels: increased INR: 1 n
  incidence of INR increased (possible sequela of FSV deficiency): 3%
  incidence of haematoma (possible sequela of FSV deficiency): 9%
  patients shifted to high INR based on the normal range: 12 patients
  patients who shifted to high post-baseline INR and had TEAEs of potential sequelae of vitamin K deficiency: 2 n
  patients with clinically meaningful INR shifts (INR >1.2): 6 patients
  shifts to low vitamin D levels: 8 patients
  shifts to low vitamin E levels: 4 patients
[2]; 24 weeks, n=35
  incidence of possible sequelae of fat-soluble vitamin deficiency: 14%
  patients with TEAEs related to FSV levels (any FSV deficiency-related TEAE): 9%
[2]; 24 weeks, vitamin D deficiency
  fat-soluble vitamin deficiency TEAE refractory to clinically recommended vitamin supplementation: 1 patients
[2]; baseline to last assessment
  changes from baseline in mean vitamin (FSV) levels or INR: No clinically meaningful changes; also recorded: no clinically relevant changes
[2]; baseline to lowest post-baseline value
  Vitamin A, shifts to low: 0/34
[2]; during the study
  patients shifted to low levels of vitamin A: No patients
[2]; n=35
  Any FSV deficiency-related TEAE: 3 (9)^a n (%)
  Any potential sequelae events: 5 (14) n (%)
  FSV deficiency-related TEAE: INR increased: 1 (3) n (%)
  FSV deficiency-related TEAE: Vitamin A decreased: 1 (3) n (%)
  FSV deficiency-related TEAE: Vitamin E decreased: 1 (3) n (%)
  Potential sequelae: Coagulopathy: 1 (3) n (%)
  Potential sequelae: Contusion: 1 (3) n (%)
  Potential sequelae: Epistaxis: 0 n (%)
  Potential sequelae: Hematemesis: 1 (3) n (%)
  Potential sequelae: Hematoma: 3 (9) n (%)
  Potential sequelae: INR increased: 1 (3) n (%)
[2]; n=35, refractory to supplementation
  FSV deficiency-related TEAE: Vitamin D deficiency: 1 (3)^b n (%)
[2]; of 35 patients
  patients with FSV deficiency TEAE refractory to clinically recommended vitamin supplementation: 3%
[3]; 27/35, incl. 25 patients without xanthomas at any time point
  patients with no change from baseline to week 24 in xanthomas: 77%
[3]; baseline to week 24, n=35
  patients showing improvements in xanthomas: 20%
  patients whose Clinician Xanthoma Scale score increased (from 0 to 1): 3%
Solubility in water
  solubility: ~30 µg/mL (≈ 40.5 µM)
[4]; n=28
  Days seeing blood due to scratching, Baseline Mean (SE): 35 (6) %
  Days sleeping with caregiver, Baseline Mean (SE): 40 (9) %
  Days with help falling asleep, Baseline Mean (SE): 59 (8) %
  Days with soothing, Baseline Mean (SE): 68 (8) %
[4]; n=28, scale 0-4
  Daytime tiredness, Baseline Mean (SE): 2.2 (0.2)
[4]; to weeks 21-24
  Days seeing blood due to scratching, Mean (SE) Change From Baseline: −30 (5) %
  Days sleeping with caregiver, Mean (SE) Change From Baseline: −34 (8) %
  Days with help falling asleep, Mean (SE) Change From Baseline: −44 (8) %
  Days with soothing, Mean (SE) Change From Baseline: −53 (8) %
[4]; weeks 21-24, n=27
  Days seeing blood due to scratching, Week 24 Mean (SE): 5 (2) %
  Days sleeping with caregiver, Week 24 Mean (SE): 8 (5) %
  Days with help falling asleep, Week 24 Mean (SE): 15 (6) %
  Days with soothing, Week 24 Mean (SE): 16 (5) %
[4]; weeks 21-24, n=28, scale 0-4
  Daytime tiredness, Week 24 Mean (SE): 1.0 (0.2)

Reference: patent publication US20240173333A1, “Treating Alagille Syndrome (ALGS)” (priority 2022, published 2024)
